Laboratory results reported in patent US20160361291A1, “METHODS FOR INCREASING SKELETAL MUSCLE PROTEIN SYNTHESIS USING GREEN TEA EXTRACT” (ABBOTT LABORATORIES, priority 2013, published 2016).

Columns and labels:
C2C12 muscle myotubes = assay: Muscle protein synthesis in C2C12 myotubes under TNF-α stress (radiolabeled phenylalanine incorporation); format: cell-based, mouse; settings: for protein synthesis as compared to the control: synthesis measured over following 4 hours
Experimental: The role of EGCg, in the form of […]® brand green tea extract that contains about 95% EGCg (available from DSM of the Netherlands), in stimulating muscle protein synthesis was evaluated in an in vitro cell-based assay using mouse C2C12 muscle myotubes. This assay measured the incorporation of radiolabeled phenylalanine into myotubes in response to various stimuli. C2C12 myoblasts passaged in FCS DMEM (Fetal Calf Serum Dulbecco's Modified Eagle's Medium) were differentiated to myotubes in HS DMEM (Horse Serum Dulbecco's Modified Eagle's Medium). The myotubes were labeled for 24 hours with L-[2,6-3H] phenylalanine prior to compound experimentation. They were then incubated with TNF-α (50 ng/ml) for 2 hours in the absence, or presence of 10 μM or 50 μM of EGCg, and protein synthesis was measured over the following 4 hours.

mTOR = mTOR activation in skeletal muscle of aged rats, 8-week diet study; format: in vivo, Sprague Dawley rats; settings: 200 mg/kg body weight EGCg per day in AIN-93M diet, 8 weeks, rats aged 20 months; p<0.05
Experimental: (§1) Each of 12 aged Sprague Dawley rats (SD) rats (20 months) were chronically fed the following diets ad libitum for 8 weeks to evaluate the effects on the progression of sarcopenia in the rats:
(§2) Control diet: AIN-93M (AIN-93M diets are well known balanced diets for rodents); and
(§3) Test diet: AIN-93M+200 mg/kg body weight of EGCg.
(§4) The AIN-93M diet was supplemented with EGCG (in the form of TEAVIGO® brand green tea extract) at a concentration of 5 gm/kg diet to deliver a dose of 200 mg/kg body weight of EGCg per day to the SD rat (approximate body weight 500 gm, approximate food intake=20 gm/d) in the test diet.

gastrocnemius muscle = assay: Gastrocnemius muscle wet weight of aged rats, 8-week diet study; format: in vivo, Sprague Dawley rats; settings: 200 mg/kg body weight EGCg per day in diet, 8 weeks, rats aged 20 months
Experimental: as §1, §2, §3, §4
(§5) This increased activation was associated with increases in gastrocnemius muscle wet weight and muscle fiber cross sectional area, as shown respectively in FIGS. 3 and 4. Excised gastrocnemius muscles were weighed at the end of the 8 weeks. […] With respect to the muscle fiber cross sectional area, 8-micron muscle sections from the SD rats were dissected, mounted, and stained using hematoxylin & eosin at the end of the 8 week period. Approximately 400 fibers were measured per sample. The results are shown in FIG. 4, in which the SD rats fed the test diet (EGCg treatment) have higher cross sectional areas as compared to that of the SD rats fed the control diet (p=0.06).

muscle fiber = assay: Muscle fiber cross sectional area of aged rats, 8-week diet study; format: in vivo, Sprague Dawley rats; settings: 200 mg/kg body weight EGCg per day in diet, 8 weeks; p=0.06
Experimental: as §1, §2, §3, §4, §5

[1] = test system: 19S regulatory particle ubiquitin proteasome subunits; assay: Western blot of 19S regulatory particle ubiquitin proteasome subunits, 8-week diet study; format: in vivo, Sprague Dawley rats; settings: 200 mg/kg body weight EGCg per day in diet, 8 weeks
Experimental: as §1, §2, §3, §4
(§6) Conversely, markers of muscle atrophy such as the 19S regulatory and 20S core particle ubiquitin proteasome subunits, MuRF1, and MAFbx were lower at the end of the 8 weeks in those SD rats fed the test diet (EGCg treatment) as compared to those fed the control diet. […] The components of the Ubiquitin Proteasome Pathway (UPP) as shown in FIGS. 5-8 were measured by western blotting in rats treated with either the test (EGCg treatment) or the control diets.

[2] = test system: 20S core particle ubiquitin proteasome subunits; assay: Western blot of 20S core particle ubiquitin proteasome subunits, 8-week diet study; format: in vivo, Sprague Dawley rats; settings: 200 mg/kg body weight EGCg per day in diet, 8 weeks
Experimental: as §1, §2, §3, §4, §6

[3] = test system: muscle ring finger protein 1 (MuRF1); assay: Western blot of MuRF1, 8-week diet study; format: in vivo, Sprague Dawley rats; settings: 200 mg/kg body weight EGCg per day in diet, 8 weeks
Experimental: as §1, §2, §3, §4, §6

[4] = test system: muscle atrophy f-box (MAFbx); assay: Western blot of MAFbx, 8-week diet study; format: in vivo, Sprague Dawley rats; settings: 200 mg/kg body weight EGCg per day in diet, 8 weeks
Experimental: as §1, §2, §3, §4, §6

Row | Compound | protein synthesis as compared to the control (C2C12 muscle myotubes; 10 μM EGCg plus TNF-α (50 ng/ml, 2 hours), p<0.05) [%] | protein synthesis as compared to the control (C2C12 muscle myotubes; 50 μM EGCg plus TNF-α (50 ng/ml, 2 hours), p<0.01) [%] | increase in intramuscular phosphorylated mTOR expression (mTOR activation) vs control diet (mTOR) [%] | greater muscle mass in excised gastrocnemius muscle vs control diet (gastrocnemius muscle) | muscle fiber cross sectional area vs control diet (muscle fiber) | 19S regulatory particle ubiquitin proteasome subunit expression vs control diet [1] | 20S core particle ubiquitin proteasome subunit expression vs control diet [2] | MuRF1 expression vs control diet [3] | MAFbx expression vs control diet [4] | drop in protein synthesis as compared to the control (C2C12 muscle myotubes; TNF-α alone, 50 ng/ml, 2 hours, p<0.05) [%]
1 | O=C(O[C@@H]1Cc2c(O)cc(O)cc2O[C@@H]1c1cc(O)c(O)c(O)c1)c1cc(O)c(O)c(O)c1 [EGCg, epigallocatechin gallate] | 104 | 109 | 53 | approximately 5% | higher | lower | lower | lower | lower | 
2 | tumor necrosis factor alpha [TNFα, reference compound] |  |  |  |  |  |  |  |  |  | 16
